# Experimental data taken from patent US9958436B2, “Determination of cell chirality” (THE TRUSTEES OF COLUMBIA UNIVERSITY IN THE CITY OF NEW YORK, priority 2011, dated 2018).
# What was measured:
# hUVEC cells = experiment: Cell chirality (alignment) on micropatterned rings, drug treatment, hUVEC; format: cell-based, human; settings: hUVEC on ring patterns, count of rings
# Experimental: (§1) Cells were maintained in tissue flasks with culture media specified in TABLE 2. After reaching 70% confluency, cells were trypsinized and seeded onto protein-coated patterned surfaces. Once the cells attached, extra cells were washed off with fresh medium. At this time drugs were added into the culture medium if necessary. Phase contrast images were taken after overnight incubation at 37° C. and 5% CO2 when cells reached confluency on the ring patterns.
# (§2) To examine the role of actin in left-right (LR) asymmetry, cells were tested with 20-500 nM Latrunculin A, 0.05-1.0 μg/ml Cytochalasin D, and 1-100 nM Jasplakinolide. Latrunculin A inhibits actin polymerization by forming a 1:1 molar complex with G-actin, thereby inhibiting its ability to polymerize into F-actin (M. Coue, S. L. Brenner, I. Spector, E. D. Korn, FEBS Lett 213, 316 (Mar. 23, 1987)). Cytochalasin D inhibits actin polymerization by binding to the growing ends of F-actin chains and thus preventing the attachment and addition of G-actin monomers (J. A. Cooper, J Cell Biol 105, 1473 (October, 1987)). Jasplakinolide is known to bind to and stabilize actin filaments in vitro (M. R. Bubb, I. Spector, B. B. Beyer, K. M. Fosen, J Biol Chem 275, 5163 (Feb. 18, 2000)).
# (§3) To examine the role of microtubules in LR asymmetry, 0.2-2 μM Nocodazole, and 0.3-30 nM Taxol were used. Nocodazole suppresses microtubule dynamics by destabilizing and disassembling microtubules (J. A. Cooper, J Cell Biol 105, 1473 (October, 1987)). Taxol inhibits the microtubule depolymerization and stabilizes microtubules (W. B. Derry, L. Wilson, M. A. Jordan, Biochemistry 34, 2203 (Feb. 21, 1995)).
# (§4) High-resolution phase contrast images of live patterned cells were taken at a resolution of ˜0.645 μm/pixel, and analyzed using a custom-written code in MatLab (MathWorks, Natick, Mass.), based on the automated detection of intensity gradient and circular statistics (W. J. Karlon et al., Ann Biomed Eng 27, 712 (November-December, 1999)). In this algorithm, the intensity gradient was determined pixel by pixel with a Gaussian differential filter. In each sub-region of the image, the dominant local direction was determined using an accumulator scheme, in which the orientation of each pixel follows a von Mises distribution, a circular analogue of the linear normal distribution. Subsequently, the orientation in each sub-region was converted into an angle bias based on its deviation from the circumferential direction (see e.g., FIG. 2C). Mean angle and standard deviation of LR asymmetry were calculated for all sub-regions, using circular statistics (N. I. Fish, Statistical Analysis of Circular Data. (Cambridge University Press, Cambridge, UK, 1993)). […] The sub-region size was therefore set to 20 by 20 pixels (i.e., 13 by 13 μm).
# (§5) Cell chirality on ring patterns (i.e., clockwise or counterclockwise alignment) was determined from calculated biased angles in local regions with one sample test for the mean angle, analogous to the one sample t-test in linear statistics (N. I. Fish, Statistical Analysis of Circular Data. (Cambridge University Press, Cambridge, UK, 1993)).
# C2C12 cells = experiment: Cell chirality (alignment) on micropatterned rings, drug treatment, C2C12; format: cell-based, mouse; settings: for CCW: counter-clockwise alignment / CW: clockwise alignment / N/S: not significantly biased to CW or CCW: C2C12 on ring patterns, count of rings; for effect on chirality of C2C12 cells: low concentrations of the actin treadmilling inhibitors; for effect on left-right asymmetry: drugs that affect the actomyosin motor, 0.2-10 mM Y-27632, 1-20 mM ML-7, 0.5-10 mM Blebbistatin
# Experimental: as §1, §2, §3
# To examine the role of the actomyosin motor, cells were tested with […], […], and 0.5-10 […]. Y-27632 works as a selective inhibitor to prevent the phosphorylation of the myosin regulatory light chain (T. Ishizaki et al., Mol Pharmacol 57, 976 (May, 2000)). ML-7 acts as a selective inhibitor of the myosin light chain kinase (M. Isemura, T. Mita, K. Satoh, K. Narumi, M. Motomiya, Cell Biol Int Rep 15, 965 (October, 1991)). Blebbistatin forms a low actin affinity complex through binding to myosin heads, causing the inhibition of nonmuscle myosin II ATPase activity (M. Kovacs, J. Toth, C. Hetenyi, A. Malnasi-Csizmadia, J. R. Sellers, J Biol Chem 279, 35557 (Aug. 20, 2004)).
# as §4, §5
structure (smiles),measurement,setting,value
C=C1[C@@H](C)[C@H]2[C@H](Cc3ccccc3)NC(=O)[C@]23[C@H](OC(C)=O)/C=C/[C@@](C)(O)C(=O)[C@@H](C)C/C=C/[C@H]3[C@@H]1O [Cytochalasin D],CCW: counter-clockwise alignment,hUVEC cells; drug 0.1 μg/mL,0
same,CW: clockwise alignment,hUVEC cells; drug 0.1 μg/mL,8
same,N/S: not significantly biased to CW or CCW,hUVEC cells; drug 0.1 μg/mL,12
same,CCW: counter-clockwise alignment,hUVEC cells; drug 0.2 μg/mL,0
same,CW: clockwise alignment,hUVEC cells; drug 0.2 μg/mL,10
same,N/S: not significantly biased to CW or CCW,hUVEC cells; drug 0.2 μg/mL,22
same,CCW: counter-clockwise alignment,hUVEC cells; drug 0.5 μg/mL,1
same,CW: clockwise alignment,hUVEC cells; drug 0.5 μg/mL,0
same,N/S: not significantly biased to CW or CCW,hUVEC cells; drug 0.5 μg/mL,6
same,CCW: counter-clockwise alignment,C2C12 cells; drug 0.05 μg/mL,8
same,CW: clockwise alignment,C2C12 cells; drug 0.05 μg/mL,9
same,N/S: not significantly biased to CW or CCW,C2C12 cells; drug 0.05 μg/mL,6
same,CCW: counter-clockwise alignment,C2C12 cells; drug 0.1 μg/mL,3
same,CW: clockwise alignment,C2C12 cells; drug 0.1 μg/mL,7
same,N/S: not significantly biased to CW or CCW,C2C12 cells; drug 0.1 μg/mL,10
same,CCW: counter-clockwise alignment,C2C12 cells; drug 0.2 μg/mL,5
same,CW: clockwise alignment,C2C12 cells; drug 0.2 μg/mL,21
same,N/S: not significantly biased to CW or CCW,C2C12 cells; drug 0.2 μg/mL,23
same,CCW: counter-clockwise alignment,C2C12 cells; drug 0.5 μg/mL,0
same,CW: clockwise alignment,C2C12 cells; drug 0.5 μg/mL,10
same,N/S: not significantly biased to CW or CCW,C2C12 cells; drug 0.5 μg/mL,14
same,CCW: counter-clockwise alignment,C2C12 cells; drug 1 μg/mL,1
same,CW: clockwise alignment,C2C12 cells; drug 1 μg/mL,8
same,N/S: not significantly biased to CW or CCW,C2C12 cells; drug 1 μg/mL,20
same,effect on chirality of C2C12 cells,C2C12 cells,reversed the chirality of C2C12 cells from CCW into CW
C[C@@H](N)[C@H]1CC[C@H](C(=O)Nc2ccncc2)CC1 [Y-27632],effect on left-right asymmetry,C2C12 cells; C2C12,did not affect left-right asymmetry
C/C1=C\[C@H](C)C[C@H](C)OC(=O)C[C@H](c2ccc(O)cc2)NC(=O)[C@@H](Cc2c(Br)[nH]c3ccccc23)N(C)C(=O)[C@H](C)NC(=O)[C@@H](C)C1 [Jasplakinolide],CCW: counter-clockwise alignment,hUVEC cells; drug 1 nM,1
same,CW: clockwise alignment,hUVEC cells; drug 1 nM,32
same,N/S: not significantly biased to CW or CCW,hUVEC cells; drug 1 nM,1
same,CCW: counter-clockwise alignment,hUVEC cells; drug 3 nM,2
same,CW: clockwise alignment,hUVEC cells; drug 3 nM,22
same,N/S: not significantly biased to CW or CCW,hUVEC cells; drug 3 nM,5
same,CCW: counter-clockwise alignment,hUVEC cells; drug 10 nM,5
same,CW: clockwise alignment,hUVEC cells; drug 10 nM,22
same,N/S: not significantly biased to CW or CCW,hUVEC cells; drug 10 nM,10
same,CCW: counter-clockwise alignment,hUVEC cells; drug 30 nM,0
same,CW: clockwise alignment,hUVEC cells; drug 30 nM,5
same,N/S: not significantly biased to CW or CCW,hUVEC cells; drug 30 nM,4
same,CCW: counter-clockwise alignment,hUVEC cells; drug 100 nM,0
same,CW: clockwise alignment,hUVEC cells; drug 100 nM,1
same,N/S: not significantly biased to CW or CCW,hUVEC cells; drug 100 nM,5
same,CCW: counter-clockwise alignment,C2C12 cells; drug 1 nM,34
same,CW: clockwise alignment,C2C12 cells; drug 1 nM,2
same,N/S: not significantly biased to CW or CCW,C2C12 cells; drug 1 nM,10
same,CCW: counter-clockwise alignment,C2C12 cells; drug 3 nM,18
same,CW: clockwise alignment,C2C12 cells; drug 3 nM,3
same,N/S: not significantly biased to CW or CCW,C2C12 cells; drug 3 nM,4
same,CCW: counter-clockwise alignment,C2C12 cells; drug 10 nM,14
same,CW: clockwise alignment,C2C12 cells; drug 10 nM,7
same,N/S: not significantly biased to CW or CCW,C2C12 cells; drug 10 nM,5
same,CCW: counter-clockwise alignment,C2C12 cells; drug 30 nM,0
same,CW: clockwise alignment,C2C12 cells; drug 30 nM,18
same,N/S: not significantly biased to CW or CCW,C2C12 cells; drug 30 nM,4
same,CCW: counter-clockwise alignment,C2C12 cells; drug 100 nM,0
same,CW: clockwise alignment,C2C12 cells; drug 100 nM,7
same,N/S: not significantly biased to CW or CCW,C2C12 cells; drug 100 nM,9
same,effect on chirality of C2C12 cells,C2C12 cells,reversed the chirality of C2C12 cells from CCW into CW
O=S(=O)(c1cccc2c(I)cccc12)N1CCCNCC1 [ML-7],effect on left-right asymmetry,C2C12 cells; C2C12,did not affect left-right asymmetry
COC(=O)Nc1nc2ccc(C(=O)c3cccs3)cc2[nH]1 [Nocodazole],CCW: counter-clockwise alignment,hUVEC cells; drug 200 nM,3
same,CW: clockwise alignment,hUVEC cells; drug 200 nM,25
same,N/S: not significantly biased to CW or CCW,hUVEC cells; drug 200 nM,76
same,CCW: counter-clockwise alignment,hUVEC cells; drug 500 nM,2
same,CW: clockwise alignment,hUVEC cells; drug 500 nM,14
same,N/S: not significantly biased to CW or CCW,hUVEC cells; drug 500 nM,27
same,CCW: counter-clockwise alignment,hUVEC cells; drug 1 μm,0
same,CW: clockwise alignment,hUVEC cells; drug 1 μm,3
same,N/S: not significantly biased to CW or CCW,hUVEC cells; drug 1 μm,4
same,CCW: counter-clockwise alignment,hUVEC cells; drug 2 μm,0
same,CW: clockwise alignment,hUVEC cells; drug 2 μm,1
same,N/S: not significantly biased to CW or CCW,hUVEC cells; drug 2 μm,7
same,effect on cell chirality,"C2C12 cells; C2C12, inhibitors of tubulin dynamics at concentrations below those resulting in cell apoptosis",did not change cell chirality
same,CCW: counter-clockwise alignment,C2C12 cells; drug 200 nM,57
same,CW: clockwise alignment,C2C12 cells; drug 200 nM,0
same,N/S: not significantly biased to CW or CCW,C2C12 cells; drug 200 nM,18
same,CCW: counter-clockwise alignment,C2C12 cells; drug 500 nM,35
same,CW: clockwise alignment,C2C12 cells; drug 500 nM,0
same,N/S: not significantly biased to CW or CCW,C2C12 cells; drug 500 nM,58
same,CCW: counter-clockwise alignment,C2C12 cells; drug 1 μM,18
same,CW: clockwise alignment,C2C12 cells; drug 1 μM,0
same,N/S: not significantly biased to CW or CCW,C2C12 cells; drug 1 μM,21
same,CCW: counter-clockwise alignment,C2C12 cells; drug 2 μM,1
same,CW: clockwise alignment,C2C12 cells; drug 2 μM,0
same,N/S: not significantly biased to CW or CCW,C2C12 cells; drug 2 μM,6
Cc1ccc2c(c1)C(=O)C1(O)CCN(c3ccccc3)C1=N2 (stereo not drawn) [Blebbistatin],effect on left-right asymmetry,C2C12 cells; C2C12,did not affect left-right asymmetry
